According to patent US20240315990A1, “Adelmidrol For Use In Diseases Characterized By Insufficient Agonism Of PPAR-GAMMA Receptor” (Epitech Group S.P.A., priority 2016, published 2024):
“Also recorded” adds a separate entry of the source.

What was measured:
[1] = test system: carrageenan-induced rat paw edema; assay: carrageenan-induced rat paw edema, foot volume by plethysmometer; format: in vivo
Procedure: The experimental model of carrageenan-induced rat paw edema was used.
The experimental model of carrageenan-induced paw edema was induced by sub-plantarily injecting a solution of carrageenan (containing 50 μl of sterile saline containing 1% carrageenan) in the animal's right paw (rat).
The foot volume was measured at specific time intervals by means of a plethysmometer (Ugo Basile, Milan, Italy). The increase in plantar volume was assessed as the difference between the value obtained at the specific time intervals and the volume at baseline (time 0) measured immediately before the administration of carrageenan.
The rats (10 animals per group) were divided into the following experimental groups: • CAR+physiological solution; • CAR+Adelmidrol (3 mg/kg); Adelmidrol was administered i.p. when injecting CAR; • CAR+Adelmidrol (10 mg/kg); Adelmidrol was administered i.p. when injecting CAR.

[2] = test system: carrageenan-induced edema in PPAR-α-WT and KO mice; assay: carrageenan-induced edema in PPAR-alpha knock-out mice; format: in vivo; conditions: Adelmidrol 10 mg/kg i.p.; for edema as a percentage with respect to the edema produced by carrageenan alone: PPAR-α-WT and KO mice
Procedure: In order to verify a possible involvement of PPAR-alpha receptor, the edema induced by carrageenan in the manners described above was carried out on PPAR-alpha knock-out mice (PPAR-α-WT and KO).
PPAR-α-WT and KO mice (10 animals per group) were divided into the following experimental groups: • CAR+physiological solution; • CAR+Adelmidrol (10 mg/kg); Adelmidrol was administered i.p. when injecting CAR.

[3] = test system: DNBS-induced bowel tissue lesion; assay: DNBS-induced bowel tissue lesion, microscope lesion score; format: in vivo; conditions: rat, DNBS 15 mg intrarectal, Adelmidrol 10 mg/kg per os in 2% CMC
Procedure: Rats were anesthetized with ethyl ether in order to ensure the animals' waking up after 4-5 minutes. 60 mg/mL DNBS was dissolved in 50% ethanol in water. An amount of 0.25 ml of alcoholic solution (containing 15 mg of DNBS) was instilled to each animal, using an 8 cm long intrarectal catheter made of silicone so as to reach […]. During the experiment, the possible ejection of the solution from the rectum when the animal awoke was carefully monitored, taking it into account in the final assessment. The assessment of the bowel lesion was performed by taking, upon sacrifice of the animal, the entire bowel which was adequately washed with physiological solution and immediately examined under a microscope. Adelmidrol was administered per os through a gastric cannula in an amount of 10 mg/kg dissolved in aqueous solution containing 2% CMC (carboxymethylcellulose). The bowel tissue lesion was quantized through microscope inspection by two different observers. […]

myeloperoxidase (MPO) = myeloperoxidase (MPO) activity in the bowel of DNBS-treated animals; format: in vivo, rat; conditions: Adelmidrol 10 mg/kg orally
Procedure: The determination of the activity of the enzyme myeloperoxidase (MPO), which is considered an important marker of neutrophil activity in the bowel, fully confirms the effect of Adelmidrol on the colonic mucosa. The test was carried out by the method described in the literature (Morampudi V. et al. Journal of Visualized Experiments—February 2014; 84:1-8) on DBNS-treated animals, not treated animals, or animals orally treated with Adelmidrol (10 mg/kg).
The results are shown in the chart in FIG. 4.

[4] = bleomycin-induced lung lesion, weight change in the animals; format: in vivo, CD1 male mice; conditions: mice, bleomycin (BLM) + Adelmidrol vs BLM + inert vehicle
Procedure: (§1) CD1 male mice ((CD1(ICR) mice (25-35 g; Harlan Nossan, Italy) were accommodated in a controlled environment and fed with standard food and water.
(§2) Using a catheter (tracheotomy tube), the mice received a single intratracheal instillation of physiological solution (0.9%) or saline containing bleomycin sulfate (0.1 U/mouse) in a final volume of 100 μL, and the liquid was immediately followed by 300 μL of air in order to also ensure the distribution thereof in the distal airways.
All procedures related to the treatment of animals were performed in accordance with the guidelines approved by the Institutional Committee (IACUC) following the guidelines of the Association for Assessment and Accreditation of Laboratory Animal Care (AAALAC). While being monitored, the animals were inspected for any adverse effects produced by the lung lesion. An assessment of the water and food consumption and consequently of the body weight (analyzed daily by weighing the animals) was carried out (Mullane K M et al, 1985, supra).
The animals belonging to the group treated with bleomycin (BLM)+inert vehicle and those belonging to that treated with BLM and Adelmidrol in an inert vehicle were weighed, and the weight change was calculated on the 3rd and 8th day after the start of the treatment with BLM. The results are shown in the chart in FIG. 5.

[5] = test system: bleomycin-induced lung edema; assay: bleomycin-induced lung lesion, lung edema (wet vs dry lung weight); format: in vivo, CD1 male mice
Procedure: CD1 male mice ((CD1(ICR) mice (25-35 g; Harlan Nossan, Italy) were accommodated in a controlled environment and fed with standard food and water. Using a catheter (tracheotomy tube), the mice received a single intratracheal instillation of physiological solution (0.9%) or saline containing bleomycin sulfate (0.1 U/mouse) in a final volume of 100 μL, and the liquid was immediately followed by 300 μL of air in order to also ensure the distribution thereof in the distal airways. The weight of the wet lungs was calculated after 28 days upon injecting bleomycin by means of careful excision of the lung from the adjacent tissues. The lungs were exposed for 48 hours at 180° C. and the dry weight was then assessed. The lung water content was calculated as wet weight-to-dry weight ratio. In order to assess the degree of the existing lung edema, at the end of the experiment, even in untreated animals, the comparison of the wet lung weight to the lung weight after water removal was carried out. The results are shown in the chart in FIG. 6.

TNF-α and IL1β = assay: bleomycin-induced lung lesion, dosage of inflammatory cytokines TNF-α and IL1β; format: in vivo, CD1 male mice; conditions: BLM-treated mice
Procedure: as §1, §2
TNF-α and IL1β are also regarded as the biochemical markers of inflammation and fibrosis of the lung. The results obtained are shown in the chart in FIG. 9.

SMILES: O=C(CCCCCCCC(=O)NCCO)NCCO [Adelmidrol, azelaic acid diethanolamide]
- effect on carrageenan-induced edema (in words) ([1]; 3 and 10 mg/kg i.p.): reduction of the carrageenan-induced edema with a dose-dependent action
- paw edema as a percentage with respect to the edema produced by carrageenan alone ([1]; Adelmidrol 3 mg/kg i.p. when injecting CAR, 0 min.): 101.2 percentage
- paw edema as a percentage with respect to the edema produced by carrageenan alone ([1]; Adelmidrol 3 mg/kg i.p. when injecting CAR, 30 min): 86.7 percentage
- paw edema as a percentage with respect to the edema produced by carrageenan alone ([1]; Adelmidrol 3 mg/kg i.p. when injecting CAR, 1 hr): 71.9 percentage
- paw edema as a percentage with respect to the edema produced by carrageenan alone ([1]; Adelmidrol 3 mg/kg i.p. when injecting CAR, 2 hr): 72.3 percentage
- paw edema as a percentage with respect to the edema produced by carrageenan alone ([1]; Adelmidrol 3 mg/kg i.p. when injecting CAR, 3 hr): 69.8 percentage
- paw edema as a percentage with respect to the edema produced by carrageenan alone ([1]; Adelmidrol 3 mg/kg i.p. when injecting CAR, 4 hr): 67.2 percentage
- paw edema as a percentage with respect to the edema produced by carrageenan alone ([1]; Adelmidrol 3 mg/kg i.p. when injecting CAR, 5 hr): 67.4 percentage
- paw edema as a percentage with respect to the edema produced by carrageenan alone ([1]; Adelmidrol 10 mg/kg i.p. when injecting CAR, 0 min.): 102.6 percentage
- paw edema as a percentage with respect to the edema produced by carrageenan alone ([1]; Adelmidrol 10 mg/kg i.p. when injecting CAR, 30 min): 81.6 percentage
- paw edema as a percentage with respect to the edema produced by carrageenan alone ([1]; Adelmidrol 10 mg/kg i.p. when injecting CAR, 1 hr): 68.7 percentage
- paw edema as a percentage with respect to the edema produced by carrageenan alone ([1]; Adelmidrol 10 mg/kg i.p. when injecting CAR, 2 hr): 63.8 percentage
- paw edema as a percentage with respect to the edema produced by carrageenan alone ([1]; Adelmidrol 10 mg/kg i.p. when injecting CAR, 3 hr): 53.6 percentage
- paw edema as a percentage with respect to the edema produced by carrageenan alone ([1]; Adelmidrol 10 mg/kg i.p. when injecting CAR, 4 hr): 49.5 percentage
- paw edema as a percentage with respect to the edema produced by carrageenan alone ([1]; Adelmidrol 10 mg/kg i.p. when injecting CAR, 5 hr): 49.5 percentage
- protective action on carrageenan-induced edema in the absence of the PPAR-alpha receptor ([2]; PPAR-alpha knock-out mice): did not alter the protective action of Adelmidrol; also recorded: shows activity on the carrageenan-induced edema in mice genetically lacking the PPAR-alpha receptor
- edema as a percentage with respect to the edema produced by carrageenan alone ([2]; 0 min.): 102.4 percentage
- edema as a percentage with respect to the edema produced by carrageenan alone ([2]; 30 min): 81.9 percentage
- edema as a percentage with respect to the edema produced by carrageenan alone ([2]; 1 hr): 69.2 percentage
- edema as a percentage with respect to the edema produced by carrageenan alone ([2]; 2 hr): 63.9 percentage
- edema as a percentage with respect to the edema produced by carrageenan alone ([2]; 3 hr): 55.6 percentage
- edema as a percentage with respect to the edema produced by carrageenan alone ([2]; 4 hr): 51.4 percentage
- edema as a percentage with respect to the edema produced by carrageenan alone ([2]; 5 hr): 50.3 percentage
- bowel tissue lesion, score 0 to 8 by microscope inspection (FIG. 2, FIG. 3) [3]: important, significant protection of the colonic mucosa
- MPO activity in the bowel, marker of neutrophil activity (FIG. 4) (myeloperoxidase (MPO)): anti-inflammatory effect on the bowel tissue
- body weight change on the 3rd and 8th day after start of BLM (FIG. 5) [4]: significant body weight gain
- difference in lung weight between fresh organ and dried organ (FIG. 6) ([5]; mice not treated with BLM): does not change the difference in lung weight between fresh organ and dried organ
- difference in lung weight between fresh organ and dried organ (FIG. 6) ([5]; mice treated with BLM and Adelmidrol vs BLM and inert vehicle): considerably lower
- IL1β level in the lung (FIG. 9) (TNF-α and IL1β): considerably reduces the levels of both inflammatory cytokines
- TNF-α level in the lung (FIG. 9) (TNF-α and IL1β): considerably reduces the levels of both inflammatory cytokines
